Measurements published in patent US20210244814A1, “COMBINATION OF METFORMIN AND CYCLOPHOSPHAMIDE AS AN ADJUVANT IN CANCER IMMUNOTHERAPY” (UNIVERSITÉ CATHOLIQUE DE LOUVAIN, priority 2018, published 2021).

Key:
[1] = test system: TCRP1A CD8^+ T cells, Treg cells and PMN-MDSCs infiltrating TiRP tumors; experiment: FACS analysis of tumor-infiltrating cells in TiRP-tumor bearing mice after adoptive cell transfer (ACT); assay type: in vivo; conditions: for tumor infiltration of the transferred TCRP1A CD8+ T cells / survival of the transferred TCRP1A CD8+ T cells (apoptosis, annexin V): 14 days after ACT, CTX 100 mg/kg one day before ACT and/or metformin 0.5 mg/ml drinking water; for tumor infiltration of the transferred TCRP1A CD8+ T cells: FIG. 3A; for survival of the transferred TCRP1A CD8+ T cells (apoptosis, annexin V): FIG. 3B
Excerpt: (§1) TiRP mice have been created by crossing Ink4a/Arf^flox/flox mice with mice carrying a transgenic construct controlled by the tyrosinase promoter and driving the expression of H-Ras^12V and Trap 1 a which encodes a MAGE-type tumor antigen P1A; the promoter is separated from the coding region by a stop cassette made of a floxed self-deleting CreER (Huijbers et al., 2006, Cancer Res 66, 3278-3286). Those mice were backcrossed to a B10.D2 background and bred to homozygosity. TCRP1A mice heterozygous for the H-2Ld/P1A35-43-specific TCR transgene were kept on the B10.D2;Rag1^−/− background (Shanker et al., 2004, J Immunol 172, 5069-5077).
(§2) A fresh solution of 4OH-Tamoxifen was prepared by dissolving 4OH-Tamoxifen (Imaginechem) in 100% ethanol and mineral oil (ratio 1:9) followed by 30-min sonication, and injected subcutaneously (2 mg/200 μl per mouse) in the neck area of gender-matched 7 weeks old TiRP mice. Tumor appearance was monitored daily and tumors were measured three times/week. Tumor volume (in mm^3) was calculated by the following formula: Volume=width^2×length×π/6. Tumor-bearing TiRP mice were randomized based on the tumor size when average volume was 500 mm^3 and treated as indicated. For cyclophosphamide (CTX, Sigma C7397) treatment, mice received an intra-peritoneal injection of CTX at 100 mg/kg or vehicle (PBS) 24 h before adoptive cell transfer. For metformin treatment, metformin (Enzo, ALX-270-432) was dissolved in mice drinking water at a concentration of 0.5 mg/ml and administered to the mice from the moment of adoptive cell transfer until the end of the experiment; the solution was replaced three times/week.
(§3) For the adoptive cell transfer (ACT), P1A-specific (TCRP1A) CD8^+ T cells were isolated from spleens and lymph nodes of TCRP1A mice using anti-mouse CD8α (Ly-2) MicroBeads (Miltenyi Biotec), and stimulated in vitro by co-culture with irradiated (10.000 rads) L1210.P1A.B7-1 cells (Gajewski et al., 1995, J Immunol 154, 5637-5648) at 1:2 ratio (0.5×10^5 CD8^+ T cells and 10^5 L1210.P1A.B7-1 cells per well in 48-well plates) in IMDM (GIBCO) containing 10% fetal bovine serum supplemented with L-arginine (0.55 mM, Merck), L-asparagine (0.24 mM, Merck), glutamine (1.5 mM, Merck), betamercaptoethanol (50 μM, Sigma), 50 Uml^−1 penicillin and […] streptomycin (Life Technologies). Four days later, TCRP1A CD8^+ T cells were purified on a Lymphoprep gradient (StemCell) and 10^7 living cells were injected intravenously in 200 μl PBS in TiRP-tumor bearing mice.
For hypoxia detection, mice received an intraperitoneal injection of pimonidazole hydrochloride at 60 mg/kg (Hypoxyprobe) 45 minutes before tumor harvesting. Tumor single cell suspension was prepared using gentleMACS Dissociator and incubating the tissue in RMPI containing 0.04% collagenase I, 0.04% collagenase II and 0.05% dispase (all from GIBCO) for 1 hour at 37° C. After passing the cell suspension through a 70 μm- and 40 μm-cell strainer, red blood cell lysis was performed (eBioscience, 00-4300-54). Tumor cell preparation was stained with the Viability dye eFluor780 (eBioscience, 1:1000) to identify dead cells during the FACS analysis, and then incubated with Mouse BD Fc Block (BD, clone 2.4G2, 1:100) in PBS supplemented with 2% FBS and 2 mM EDTA. TCRP1A CD8^+ T cells were labeled by using H-2L^d PIA tetramer-PE (1 μM, produced in-house at the Ludwig Institute for Cancer Research) and anti-CD8α BV-421 (BioLegend, 53-6.7, 1:200); for apoptosis quantification, Annexin V APC (BioLegend, 1:20) was used. Hypoxic cells were identified with the anti-pimonidazole antibody (Hypoxyprobe, HP-FITC-Mab 4.3.11.3, 1:100) after cell fixation and permeabilization according to manufacturer's instructions (eBioscience Transcription Factor Staining Buffer Set).

[2] = test system: TiRP mice (genetically engineered mouse melanoma model); experiment: Tumor growth, tumor weight and survival of TiRP mice with or without ACT; assay type: in vivo; conditions: for tumor response to the immunotherapy (tumor growth) / tumor growth and tumor weight 14 days after ACT / tumor growth in the presence of ACT: TiRP mice with ACT; for tumor response to the immunotherapy (tumor growth): up to 22 days after ACT, FIG. 6A; for tumor growth and tumor weight 14 days after ACT: CTX 100 mg/kg the day before ACT and/or metformin 0.5 mg/ml for 14 days, FIG. 5; for tumor growth in the presence of ACT / tumor growth in absence of ACT: FIG. 7; for tumor growth in absence of ACT: TiRP mice without ACT
Excerpt: as §1, §2, §3
Data entry and all analyses were performed in a blinded fashion. All statistical analyses were performed using GraphPad Prism software. Statistical significance was calculated by two-tailed unpaired t-test on two experimental conditions or two-way analysis of variance (ANOVA) when repeated measures were compared, with p<0.05 considered statistically significant. Independent experiments were pooled and analyzed together whenever possible. All graphs show mean values±s.e.m.

B16F1 melanoma tumors = experiment: B16F1 melanoma tumor growth with anti-PD-1 antibody or isotype control; assay type: in vivo, mice; conditions: FIG. 8A; for growth of B16F1 melanoma tumors, single treatment: B6 mice
Excerpt: (§4) Gender and age matched […] wild-type mice were used for the experiments with checkpoint inhibitors.
(§5) For the experiments with checkpoint inhibitors, gender matched, 7-9 weeks old […] wild-type mice were subcutaneously injected with 1 million of B16F1 or MC38 tumor cells. Mice were randomized based on the tumor size one week after the injection of tumor cells (B16F1 melanoma model) or when the average tumor size was between 90 and 120 mm^3 (MC38 colon carcinoma model). Tumor-bearing mice were then treated with CTX or PBS as described above. One day after, metformin was prepared as mentioned above and added to the mice drinking water until the end of the experiment. A dose of 100 μg/mouse of anti-PD-1 antibody (clone RMP1-14, Bio-X-Cell) or RatIgG2a isotype (clone 2A3, Bio-X-Cell) was injected intraperitoneally three times (B16F1 model) or four times (MC38 model) every three or four days starting from the day after CTX or PBS treatment.

MC38 colon carcinoma = MC38 colon carcinoma tumor rejection with anti-PD-1 antibody; assay type: in vivo, mice; conditions: MC38, 16 days after treatment, associated with the PD-1 inhibitor; FIG. 9B-D
Excerpt: as §4, §5

SMILES | infiltration of TCRP1A CD8^+ T cells in the tumor ([1]; 4 days after ACT, metformin 0.5 mg/ml in drinking water from ACT, vs vehicle, FIG. 1A) | recruitment of TCRP1A CD8^+ T cells to the hypoxic regions of the tumor ([1]; 4 days after ACT, metformin 0.5 mg/ml in drinking water, pimonidazole-positive, FIG. 1B) | tumor infiltration of the transferred TCRP1A CD8+ T cells [1] | survival of the transferred TCRP1A CD8+ T cells (apoptosis, annexin V) [1] | tumor response to the immunotherapy (tumor growth) [2] | tumor growth and tumor weight 14 days after ACT [2] | tumor growth in the presence of ACT [2] | tumor growth in absence of ACT [2] | growth of B16F1 melanoma tumors, single treatment (B16F1 melanoma tumors) | tumor response to the PD-1 inhibitor (B16F1 melanoma tumors; B16F1, associated with anti-PD-1 antibody 100 μg on day 0, 3, 7, C, D) | mice that had rejected the tumor (MC38 colon carcinoma) | tumor infiltration of Treg cells ([1]; 4 days after ACT, single injection of CTX 100 mg/kg one day before ACT, FIG. 2A) | tumor infiltration of PMN-MDSCs ([1]; 4 days after ACT, single injection of CTX 100 mg/kg one day before ACT, FIG. 2B)
CN(C)C(=N)N=C(N)N [metformin, 3-(diaminomethylidene)-1,1-dimethylguanidine] | significantly increased | allowed the recruitment | increased tumor infiltration | increased survival | did not seem to induce a significant tumor response | seemed to partially reduce tumor growth | did not inhibit tumor growth | did not inhibit tumor growth | not significantly affected | did not seem to induce a significant tumor response | 20% |  | 
O=P1(N(CCCl)CCCl)NCCCO1 (stereo not drawn) [cyclophosphamide, 2-[bis(2-chloroethyl)amino]-1,3,2λ^5-oxazaphosphinan-2-one] |  |  | increase | increase | did induce a significant tumor response | allowed an inhibition of the tumor growth | tumor response was improved by the immunotherapy | significantly reduced tumor growth | induced per se a significant tumor response |  | 40% | reduced | reduced
